Laboratory results published in BindingDB's records for doi:10.1016/j.bmc.2007.07.029 (Polish Academy of Sciences, 2007).

Assays:
Assay in all cases: Radioligand Binding Assay (Ki)
[1] = biological target: T1, Alpha-1B adrenergic receptor (Rattus norvegicus, UniProt P15823)
T1 sequence (P15823 whole entry): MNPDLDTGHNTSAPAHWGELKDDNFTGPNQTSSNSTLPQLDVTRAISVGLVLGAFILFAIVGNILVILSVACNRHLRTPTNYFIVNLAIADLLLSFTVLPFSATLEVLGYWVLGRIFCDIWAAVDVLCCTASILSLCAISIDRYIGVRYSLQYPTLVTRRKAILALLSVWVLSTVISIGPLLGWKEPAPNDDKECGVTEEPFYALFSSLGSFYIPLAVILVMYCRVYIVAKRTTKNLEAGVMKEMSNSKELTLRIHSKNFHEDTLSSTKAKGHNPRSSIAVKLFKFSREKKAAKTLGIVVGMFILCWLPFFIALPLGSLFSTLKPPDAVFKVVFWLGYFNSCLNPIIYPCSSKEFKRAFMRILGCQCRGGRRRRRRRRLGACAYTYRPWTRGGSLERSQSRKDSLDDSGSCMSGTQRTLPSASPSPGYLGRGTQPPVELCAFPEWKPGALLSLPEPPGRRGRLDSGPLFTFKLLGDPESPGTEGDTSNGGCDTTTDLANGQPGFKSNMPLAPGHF
Experimental: (§1) Competition experiments were performed in the presence radioligand with membrane protein and test compounds. After incubation, the reaction stopped by rapid filtration onto a 96-well GF/B filter. Radioactivity retained on the filters was measured by liquid scintillation counting (Beckman LS 6500 apparatus). IC50 values for test compounds were determined from nonlinear regression analysis of data collected from ligand binding experiments. The inhibition constant (Ki) was calculated from IC50 value by the Cheng and Prusoff equation.

[2] = biological target: 5-hydroxytryptamine receptor 7 (Homo sapiens, UniProt P34969); details: pH 7.4; 37 °C
Experimental: as §1

D(2) dopamine receptor = D(2) dopamine receptor (Rattus norvegicus, UniProt P61169)
Experimental: as §1

[3] = biological target: T2, 5-hydroxytryptamine receptor 1A (Rattus norvegicus, UniProt P19327); details: pH 7.4; 37 °C
T2 sequence (P19327 whole entry): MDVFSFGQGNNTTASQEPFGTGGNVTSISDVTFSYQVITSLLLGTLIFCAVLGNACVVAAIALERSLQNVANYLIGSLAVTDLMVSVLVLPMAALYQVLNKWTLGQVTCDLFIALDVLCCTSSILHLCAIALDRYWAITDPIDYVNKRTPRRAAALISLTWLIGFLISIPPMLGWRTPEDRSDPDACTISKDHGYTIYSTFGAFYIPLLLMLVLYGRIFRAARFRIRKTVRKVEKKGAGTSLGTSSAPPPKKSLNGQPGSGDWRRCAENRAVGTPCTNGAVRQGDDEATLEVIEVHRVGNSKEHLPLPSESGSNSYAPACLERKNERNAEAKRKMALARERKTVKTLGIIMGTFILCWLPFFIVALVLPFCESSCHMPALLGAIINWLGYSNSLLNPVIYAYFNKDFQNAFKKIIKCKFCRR
Experimental: as §1

Sequence of D(2) dopamine receptor (P61169 whole entry): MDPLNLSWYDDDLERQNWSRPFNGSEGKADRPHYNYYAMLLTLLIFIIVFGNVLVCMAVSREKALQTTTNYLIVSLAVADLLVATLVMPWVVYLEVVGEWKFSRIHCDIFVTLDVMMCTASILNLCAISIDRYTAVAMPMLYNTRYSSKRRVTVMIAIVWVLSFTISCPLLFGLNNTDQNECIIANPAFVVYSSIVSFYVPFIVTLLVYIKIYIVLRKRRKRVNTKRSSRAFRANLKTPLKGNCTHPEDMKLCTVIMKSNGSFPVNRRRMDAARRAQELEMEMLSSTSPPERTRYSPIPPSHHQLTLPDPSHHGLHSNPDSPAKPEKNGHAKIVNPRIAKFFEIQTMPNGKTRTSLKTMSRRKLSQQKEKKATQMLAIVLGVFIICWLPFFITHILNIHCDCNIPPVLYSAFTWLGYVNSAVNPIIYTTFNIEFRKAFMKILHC
Sequence of 5-hydroxytryptamine receptor 7 (P34969 whole entry): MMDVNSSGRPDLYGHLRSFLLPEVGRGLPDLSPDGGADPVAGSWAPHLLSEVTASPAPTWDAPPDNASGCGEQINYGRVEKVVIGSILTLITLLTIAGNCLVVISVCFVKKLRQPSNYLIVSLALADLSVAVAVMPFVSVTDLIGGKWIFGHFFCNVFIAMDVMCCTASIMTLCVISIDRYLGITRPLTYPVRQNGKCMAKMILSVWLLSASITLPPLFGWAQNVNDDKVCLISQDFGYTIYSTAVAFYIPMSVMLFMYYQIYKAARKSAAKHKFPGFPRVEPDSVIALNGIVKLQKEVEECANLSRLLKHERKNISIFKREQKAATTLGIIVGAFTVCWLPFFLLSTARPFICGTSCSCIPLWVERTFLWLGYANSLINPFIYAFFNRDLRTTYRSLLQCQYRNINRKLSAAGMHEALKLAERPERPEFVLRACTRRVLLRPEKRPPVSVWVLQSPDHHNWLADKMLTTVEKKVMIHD

For `O=C1CCC(=O)N1C1CCC(N2CCN(c3cccc(C(F)(F)F)c3)CC2)CC1` (centres undefined) [1-(m-trifluorophenyl)piperazine, 4], the Ki [1] was 505 nM, the Ki [2] was 1820 nM and the Ki (D(2) dopamine receptor) was over 25000 nM. For the same compound, the Ki [3] was 4 nM.
